Here are results for ten compounds from ChEMBL document CHEMBL4673332, “Neuroprotective and Anti-inflammatory Ditetrahydrofuran-Containing Diarylheptanoids from Tacca chantrieri” (J Nat Prod, 2020).

Molecules are shown by their SMILES.

Data set [1] relates to BV-2. The experiment in a line: Antiinflammatory activity against LPS-induced mouse BV-2 cells assessed NO production at 10 uM preincubated for 2 hrs followed by LPS-stimulation and measured after 24 hrs by Greiss reagent based assay relative to control. In kind it is functional. The following applies: time 26 hrs.
The test system of data set [2] is BV-2. The data set is described as follows: Antiinflammatory activity against LPS-induced mouse BV-2 cells assessed NO production at 1 uM preincubated for 2 hrs followed by LPS-stimulation and measured after 24 hrs by Greiss reagent based assay relative to control. It is filed as functional. The following applies: time 26 hrs.
Data set [3] relates to BV-2. The data set is described as follows: Cytotoxicity against mouse BV-2 cells assessed as reduction cell viability at 10 uM after 24 hrs by MTT assay. The following applies: bv-2, 24 h. In kind it is cell-based.
The subject of data set [4] is SH-SY5Y. The experiment in a line: Neuroprotective activity in human SH-SY5Y cells assessed as reduction in amyloid beta (25 to 35)-induced cytotoxicity by measuring cell viability at 10 uM after 24 hrs by MTT assay relative to control. It is filed as functional.
Data set [5] concerns SH-SY5Y. The data set is described as follows: Cytotoxicity against human SH-SY5Y cells assessed as reduction cell viability at 1 to 10 uM after 24 hrs by MTT assay. It is filed as cell-based. The conditions noted are these: dose 1-10 µM.
The subject of data set [6] is SH-SY5Y. The experiment in a line: Neuroprotective activity in human SH-SY5Y cells assessed as reduction in amyloid beta (25 to 35)-induced cytotoxicity by measuring cell viability at 1 uM after 24 hrs by MTT assay relative to control. It is filed as functional.
Data set [7] in a line: Cytotoxicity against mouse BV-2 cells assessed as cell viability at 10 uM after 24 hrs by MTT assay relative to control. It is filed as cell-based. The following applies: read-out: Activity.

In the case of `Oc1ccc(CC[C@@H](O)C[C@H](O)CCc2ccc(O)cc2)cc1` [(+)-HANNOKINOL], the Activity in data set [1] is reported as 94.8%; in data set [2], 101.9%; in data set [3], “Non-Toxic”.

Consider `COc1cc(CC[C@@H](O)C[C@H](O)CCc2ccc(O)c(OC)c2)ccc1O`, for which the results for the Activity in data set [1], in data set [2] and in data set [3] were 84.3%, 101.2% and “Non-Toxic”, respectively.

For the compound `COc1cc(/C=C/C=C/C(=O)CCc2ccc(O)cc2)cc(OC)c1O`, the Activity is reported as 81.3% in data set [4]; 77.4% in data set [1]; 96.8% in data set [2]; “Non-Toxic” in data set [5]; 66.1% in data set [6]; “Non-Toxic” in data set [3].

In the case of `COc1cc(CC[C@@H](O)C[C@H](O)CCc2ccc(O)cc2)ccc1O`, the Activity is 85.7% in data set [1], 99.4% in data set [2] and “Non-Toxic” in data set [3].

Consider `Oc1ccc2cc1Oc1ccc(cc1)CC[C@H](O)C[C@@H](O)CC2` (relative stereo), for which the Activity in data set [1] is reported as 84.6%; in data set [2] it was 98.8%; in data set [3] it was “Non-Toxic”.

Consider `COc1cc([C@@H]2O[C@@H](CC(=O)CCc3ccc(O)cc3)[C@@H]3[C@H]2[C@H](CC(=O)CCc2ccc(O)cc2)O[C@H]3c2ccc(O)cc2)ccc1O`, for which the Activity in data set [4] was 91.9%; in data set [1] it was 86.8%; in data set [2], 99.6%; in data set [5], “Non-Toxic”; in data set [6], 69.6%; in data set [3], “Non-Toxic”.

Consider `O=C(CCc1ccc(O)cc1)C[C@@H]1O[C@@H](c2ccc(O)cc2)[C@H]2[C@@H]1[C@H](c1ccc(O)cc1)O[C@H]2CC(=O)CCc1ccc(O)cc1`, for which the viability at 24 h, 10 µM in data set [7] is < 70%. Further, the Activity in data set [4] is 70.9%; in data set [1], 87.8%; in data set [2], 100.9%; in data set [6] it was 70.7%.

With `COc1cc([C@@H]2O[C@@H](CC(=O)CCc3ccc(O)cc3)[C@@H]3[C@H]2[C@H](CC(=O)CCc2ccc(O)cc2)O[C@H]3c2ccc(O)c(OC)c2)ccc1O`, the viability at 24 h, 10 µM in data set [7] is < 70%. Besides, the Activity in data set [4] is listed as 76.3%; in data set [1] it was 85%; in data set [2], 101.4%; in data set [5], “Non-Toxic”; in data set [6], 69%.

Turning to `O=C(O[C@@H]1Cc2c(O)cc(O)cc2O[C@@H]1c1cc(O)c(O)c(O)c1)c1cc(O)c(O)c(O)c1` [EPIGALOCATECHIN GALLATE], in data set [4], the Activity came out at 80.8%.

As to `Oc1ccc(/C=C/c2cc(O)cc(O)c2)cc1` [RESVERATROL], the Activity in data set [2] amounted to 67.5%.
